Values of other authors, collected in patent US5047247A, “Dispersible tablets of dihydroergotoxine methanesulfonate and of acid addition salts thereof” (LEK, priority 1988, dated 1991).

Substance	solubility in water, in words
dihydroergotoxine	poorly soluble in water
dihydroergotoxine methanesulphonate	poorly soluble in water
